This is an account of results in patent publication US20240327801A1, “EFFICIENT CELL CULTURE SYSTEM FOR HEPATITIS C VIRUS GENOTYPE 4a” (Hvidovre Hospital, priority 2021, published 2024).

One assay has as its system ED43-virus. It counts as cell-based, hepatitis C virus genotype 4a.
Assay [1] concerns original ED43 virus (HCV genotype 4a full-length culture virus). Nature of the assay: concentration-response (EC50) assay, original virus. The settings on record: Hepatitis C virus, Huh7.5, 48 h, read-out: EC50 (nM [95% CI]).
Experimental: Huh7.5 cells were seeded on 96-well plates overnight, then infected with the indicated viruses for 24 hours. The cells were subsequently treated with specific inhibitors for an additional 48 hours before analysis as described (Pham et al. 2018; Gottwein et al. 2011). Values are means of triplicates±SEM. The original D43 virus was used in these two experiments as a control. TN (1a) virus was included for comparison.
Huhu7.5 cells were seeded on 96-well plates overnight, then infected with the indicated viruses for 24 hours. The cells were subsequently treated with specific inhibitors for an additional 48 hours before analysis as described (Pham et al. 2018; Gottwein et al. 2011). Values are means of triplicates±SEM. The original ED43 virus was used as a control. TN (1a) virus was included for comparison.
For concentration-response assays using described methods (Pham et al. 2018; Ramirez et al. 2016; Ramirez et al. 2014), stocks of non-treated and of single-treatment escape viruses were prepared. […] The half-maximal effective concentration (EC50) value was calculated using GraphPad Prism 6.
The test system of assay [2] is SOFesc virus (ED43 sofosbuvir escape virus). Nature of the assay: microbe, parasite or virus in culture. Type of assay: cell-based. The settings on record: Hepatitis C virus, Huh7.5 cells, 48 hours treatment, read-out: EC50 (nM [95% CI]).

Like-named read-outs stand apart in the source and are kept apart here.

`COC(=O)N[C@H](C(=O)N1CCC[C@H]1c1nc(-c2ccc3c(c2)O[C@@H](c2ccccc2)n2c-3cc3cc(-c4c[nH]c([C@@H]5CCCN5C(=O)[C@@H](NC(=O)OC)C(C)C)n4)ccc32)c[nH]1)C(C)C` [elbasvir]: the “emergence of main RASs responsible for ED43 escape” value (from here on “emergence of main RASs responsible”) in the assay with ED43-virus (100×EC50) worked out at 5 days. Regarding `COC(=O)N[C@H](C(=O)N1CC2(CC2)C[C@H]1c1nc(-c2ccc3c(c2)C(F)(F)c2cc(-c4ccc5[nH]c([C@@H]6[C@H]7CC[C@H](C7)N6C(=O)[C@@H](NC(=O)OC)C(C)C)nc5c4)ccc2-3)c[nH]1)C(C)C` [ledipasvir], the “emergence of main RASs responsible” value in the assay on ED43-virus (100×EC50) amounted to 5 days. For `COC(=O)N[C@H](C(=O)N1CCC[C@H]1C(=O)Nc1ccc([C@@H]2CC[C@@H](c3ccc(NC(=O)[C@@H]4CCCN4C(=O)[C@@H](NC(=O)OC)C(C)C)cc3)N2c2ccc(C(C)(C)C)cc2)cc1)C(C)C` [ombitasvir], the “emergence of main RASs responsible” value in the assay on ED43-virus (100×EC50) is 5 days. Regarding `Cc1cnc(C(=O)N[C@H]2CCCCC/C=C\[C@@H]3C[C@@]3(C(=O)NS(=O)(=O)C3CC3)NC(=O)[C@@H]3C[C@@H](Oc4nc5ccccc5c5ccccc45)CN3C2=O)cn1` [paritaprevir], in the assay with ED43-virus (8×EC50), the “emergence of RAS NS3P-D168E after treatment initiation” value was found to be 7 days and the “viral escape / viral spread under treatment” value turned out to be 16 days. For `COC(=O)N[C@H](C(=O)N1CCC[C@H]1c1nc2cc([C@H]3CC[C@H](c4cc5nc([C@@H]6CCCN6C(=O)[C@@H](NC(=O)OC)[C@@H](C)OC)[nH]c5cc4F)N3c3cc(F)c(N4CCC(c5ccc(F)cc5)CC4)c(F)c3)c(F)cc2[nH]1)[C@@H](C)OC` [pibrentasvir], the viral escape in the assay on ED43-virus (5×EC50) is not above 33 days. Moreover, the treatment outcome with ED43-virus (10×EC50) was “viral eradication”. Broadly, the EC50 is the concentration at which the effect is half-maximal. The compound `CC(C)OC(=O)[C@H](C)N[P@](=O)(OC[C@H]1O[C@@H](n2ccc(=O)[nH]c2=O)[C@](C)(F)[C@@H]1O)Oc1ccccc1` [sofosbuvir] displayed a viral escape in the assay on ED43-virus (2×EC50 (initiated at 1×EC50, increased at day 9)) of 77 days. The EC50 worked out at 668 nM in assay [1] and 2250 nM in assay [2]. Consider `COC[C@H]1C[C@@H](c2nc(-c3ccc4c(c3)COc3cc5c(ccc6nc([C@@H]7CC[C@H](C)N7C(=O)[C@@H](NC(=O)OC)C(C)C)[nH]c65)cc3-4)c[nH]2)N(C(=O)[C@H](NC(=O)OC)c2ccccc2)C1` [velpatasvir], for which the viral escape entry with ED43-virus (100×EC50) is “did not observe viral escape”.
